Measurements: ChEMBL document CHEMBL5096171, “Synthesis and Biological Evaluation of PSMA Ligands with Aromatic Residues and Fluorescent Conjugates Based on Them” (J Med Chem, 2021)
Converted amounts (≈) assume the structure as drawn.

What was measured:
[1] = Drug uptake in human 22Rv1 cells assessed as decrease in drug accumulation incubated for 1 hr in presence of (3S,7S,25S,28S)-33-Azido-25-benzyl-12-(3-chlorobenzyl)-28-(4-hydroxybenzyl)-5,13,20,23,26,29-hexaoxo-4,6,12,19,24,27,30-heptaazatritriacontane-1,3,7-tricarboxylic acid by flow cytometry; assay type: ADME, cell-based; details: cwr22r
[2] = Drug uptake in human PC-3 cells assessed as decrease in drug accumulation incubated for 1 hr in presence of (3S,7S,25S,28S)-33-Azido-25-benzyl-12-(3-chlorobenzyl)-28-(4-hydroxybenzyl)-5,13,20,23,26,29-hexaoxo-4,6,12,19,24,27,30-heptaazatritriacontane-1,3,7-tricarboxylic acid by flow cytometry; assay type: ADME, cell-based; details: pc-3, 1 h
[3] = Drug uptake in human 22Rv1 cells assessed as drug accumulation by measuring fluorescence signal at 4 uM incubated for 30 mins by flow cytometry; assay type: ADME, cell-based; details: cwr22r, 0.5 h
[4] = Drug uptake in human LNCaP cells assessed as drug accumulation by measuring fluorescence signal at 4 uM incubated for 30 mins by flow cytometry; assay type: ADME, cell-based; details: 0.5 h
[5] = Drug uptake in human PC-3 cells assessed as drug accumulation by measuring fluorescence signal at 4 uM incubated for 30 mins by flow cytometry; assay type: ADME, cell-based; details: pc-3, 0.5 h
[6] = Drug uptake in human LNCaP cells assessed as decrease in drug accumulation incubated for 1 hr in presence of (3S,7S,25S,28S)-33-Azido-25-benzyl-12-(3-chlorobenzyl)-28-(4-hydroxybenzyl)-5,13,20,23,26,29-hexaoxo-4,6,12,19,24,27,30-heptaazatritriacontane-1,3,7-tricarboxylic acid by flow cytometry; assay type: ADME, cell-based
[7] = Drug uptake in human LNCaP cells assessed as fold decrease in drug accumulation incubated for 1 hr in presence of (3S,7S,25S,28S)-33-Azido-25-benzyl-12-(3-chlorobenzyl)-28-(4-hydroxybenzyl)-5,13,20,23,26,29-hexaoxo-4,6,12,19,24,27,30-heptaazatritriacontane-1,3,7-tricarboxylic acid by flow cytometry; assay type: ADME, cell-based
[8] = Drug excretion in […] at 0.449 mg/kg, IT administered as single dose measured after 24 hrs; assay type: ADME, organism-based, CWR22R; details: in vivo, other
LNCaP = experiment: Cytotoxicity against human LNCaP cells assessed as reduction in cell viability incubated for 5 days by MTT assay; assay type: functional; details: 120 h, time 5 day
PC-3 = experiment: Cytotoxicity against human PC-3 cells assessed as reduction in cell viability incubated for 5 days by MTT assay; assay type: functional; details: PC-3, 120 h, time 5 day
[9] = molecular target: T1, Glutamate carboxypeptidase 2 (Homo sapiens, UniProt Q04609); experiment: Inhibition of PMSA in human LNCaP cells assessed as increase in fluorescent signal upto 100 nM incubated for 1 hr by flow cytometry (reference value: 2.11%); assay type: cell-based
Target sequence in this assay (Q04609 whole entry, looked up): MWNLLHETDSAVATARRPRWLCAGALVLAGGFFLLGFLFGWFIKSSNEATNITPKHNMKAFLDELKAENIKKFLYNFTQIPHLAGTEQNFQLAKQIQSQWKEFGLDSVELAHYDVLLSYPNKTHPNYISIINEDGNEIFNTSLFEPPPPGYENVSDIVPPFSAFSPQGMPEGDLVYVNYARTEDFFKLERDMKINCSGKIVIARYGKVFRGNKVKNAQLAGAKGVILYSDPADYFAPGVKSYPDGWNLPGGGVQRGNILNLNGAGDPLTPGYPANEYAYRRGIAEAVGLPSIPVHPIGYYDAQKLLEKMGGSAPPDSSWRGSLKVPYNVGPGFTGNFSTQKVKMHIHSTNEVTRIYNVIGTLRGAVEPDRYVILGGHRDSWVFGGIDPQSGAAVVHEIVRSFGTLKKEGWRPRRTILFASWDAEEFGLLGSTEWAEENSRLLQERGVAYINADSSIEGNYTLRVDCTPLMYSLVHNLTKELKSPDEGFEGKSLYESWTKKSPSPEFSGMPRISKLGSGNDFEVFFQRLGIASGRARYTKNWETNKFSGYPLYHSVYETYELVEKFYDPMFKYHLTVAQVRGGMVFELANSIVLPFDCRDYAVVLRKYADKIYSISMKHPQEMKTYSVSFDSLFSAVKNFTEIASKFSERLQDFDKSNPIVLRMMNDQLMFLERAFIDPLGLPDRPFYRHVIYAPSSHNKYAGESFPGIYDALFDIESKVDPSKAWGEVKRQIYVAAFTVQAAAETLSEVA

[10] = molecular target: T1, Glutamate carboxypeptidase 2; experiment: Inhibition of PSMA derived from human LNCaP cell lysate assessed as inhibition of NAAG hydrolysis incubated for 2 hrs in presence of NAAG by Amplex Red assay; assay type: subcellular
Target sequence in this assay (Q04609 whole entry): as the sequence (Q04609 whole entry, looked up) above

[11] = Drug uptake in skin capillary of Balb/c nude mouse xenografted with human 22Rv1 cells at 0.449 mg/kg, IT administered as single dose measured after 24 hrs; assay type: ADME, organism-based, Skin of body, CWR22R; details: in vivo, other
[12] = molecular target: T1, Glutamate carboxypeptidase 2; experiment: Inhibition of PMSA in human PC-3 cells assessed as increase in fluorescent signal upto 100 nM incubated for 1 hr by flow cytometry (reference value: 1.14%); assay type: cell-based
Target sequence in this assay (Q04609 whole entry, looked up): as above

[13] = Drug excretion in Balb/c nude mouse xenografted with human 22Rv1 cells assessed as non-specifically bound drug at 0.449 mg/kg, IT administered as single dose measured after 24 hrs; assay type: ADME, organism-based, CWR22R; details: in vivo, other
[14] = Drug uptake in bloodstream of Balb/c nude mouse xenografted with human 22Rv1 cells at 0.449 mg/kg, IT administered as single dose measured after 24 hrs; assay type: ADME, organism-based, Blood, CWR22R; details: in vivo, other
[15] = Drug uptake in human PC-3 cells xenografted in Balb/c nude mouse assessed as amount of fluorescence intensity at 0.449 mg/kg, IT administered as single dose measured after 24 hrs by IVIS Spectrum CT analysis; assay type: ADME, organism-based; details: in vivo, other
[16] = Water solubility of the compound; assay type: physicochemical
[17] = molecular target: T1, Glutamate carboxypeptidase 2; experiment: Inhibition of PMSA in human 22Rv1 cells assessed as increase in fluorescent signal upto 100 nM incubated for 1 hr by flow cytometry (reference value: 2.97%); assay type: cell-based
Target sequence in this assay (Q04609 whole entry, looked up): as above

[18] = Drug localisation in human LNCaP cells assessed as increase in fluorescent signal at 100 nM incubated for 2 hrs by Hoechst 33342 staining based fluorescence microscopy; assay type: ADME, cell-based; details: 0.1 µM
[19] = n-Octanol/aqueous buffer distribution coefficient, log D of compound at pH 6.4 by shake flask method; assay type: physicochemical
[20] = Drug uptake in human 22Rv1 cells xenografted in Balb/c nude mouse assessed as amount of fluorescence intensity at 0.449 mg/kg, IT administered as single dose measured after 24 hrs by IVIS Spectrum CT analysis; assay type: ADME, organism-based, CWR22R; details: in vivo, other

## O=C(O)CC[C@H](NC(=O)N[C@@H](CCCCN(Cc1cccc(Cl)c1)C(=O)CCCCCNC(=O)CCC(=O)N[C@@H](Cc1ccccc1)C(=O)N[C@@H](Cc1ccc(O)cc1)C(=O)NCCCn1cc(CNC(=O)c2cccc3c2C(=O)OC32c3ccc(O)cc3Oc3cc(O)ccc32)nn1)C(=O)O)C(=O)O
[1]
  Drug uptake: Active
[2]
  Drug uptake: Active
[3]
  Drug uptake: 14.4%
[4]
  Drug uptake: 83.8%
[5]
  Drug uptake: 7.6%
[6]
  Drug uptake: Active

## CN1/C(=C/C=C/C=C/C2=[N+](CCCCCC(=O)NCc3cn(CCCNC(=O)[C@H](Cc4ccc(O)cc4)NC(=O)[C@H](Cc4ccccc4)NC(=O)CCC(=O)NCCCCCC(=O)N(CCCC[C@H](NC(=O)N[C@@H](CCC(=O)O)C(=O)O)C(=O)O)Cc4cccc(Cl)c4)nn3)c3ccc(S(=O)(=O)[O-])cc3C2(C)C)C(C)(C)c2cc(S(=O)(=O)O)ccc21
[7]
  fold change (FC): 4.1
[8]
  Drug excretion: Active
LNCaP
  CC50: > 100 µM
[1]
  Drug uptake: Active
PC-3
  CC50: > 100 µM
[9]
  inhibition: 95%
[2]
  Drug uptake: Active
[10]
  Ki: 0.0026 µM
[11]
  Drug uptake: Active
[12]
  inhibition: 2.79%
[13]
  Drug excretion: Active
[14]
  Drug uptake: Active
[15]
  Activity: 1.5 10^9(p/s)(uW/cm^2)
[16]
  solubility: 7000 µg/mL (≈ 4.05 mM)
[17]
  inhibition: 35.3%
[18]
  Drug uptake: Active
[19]
  logD: -1.2
[20]
  Activity: 1.5 10^9(p/s)(uW/cm^2)
